Measured values from patent US10208033B2, “β-carboline, dihydro-β-carboline and tetrahydro-β-carboline alkaloid derivatives and preparation methods same and use in aspects of preventing and treating plant viruses, fungicides and insecticides” (NANKAI UNIVERSITY, priority 2013, dated 2019).
Where a name gives a salt, the structure may show the parent alone.

Assays:
Alternaria solani = test: Fungicidal (bactericidal) activity in vitro, PDA colony diameter; type: cell-based; details: Alternaria solani, 96 h; 50 mg/kg
Macrophoma kawatsukai = test: as above; type: cell-based; details: 50 mg/kg
cucumber fusarium wilt = test: as above; type: cell-based; details: Fusarium, 96 h; 50 mg/kg
[1] = tested on: tobacco mosaic virus (TMV); test: Anti-TMV in vivo inactivation; set-up: species or system tobacco mosaic virus (host Nicotiana tabacum L.cv.Xanthi NN); details: Tobacco mosaic virus, read-out: Relative inhibition rate (%) In vivo inactivation
Cercospora arachidicola = test: Fungicidal (bactericidal) activity in vitro, PDA colony diameter; type: cell-based; details: Mycosphaerella arachidis, 96 h; 50 mg/kg
[2] = tested on: tobacco mosaic virus (TMV); test: Anti-TMV in vitro effect (half-leaf soaking); type: cell-based, tobacco mosaic virus (host Nicotiana tabacum L.cv.Xanthi NN); details: Tobacco mosaic virus, read-out: Relative inhibition rate (%) In vitro activity
Fusarium graminearumt = test: microbe, parasite or virus in culture; type: cell-based; details: Fusarium, 96 h, read-out: Bactericidal activity (%) Fusarium graminearumt
Botrytis cinerea = test: Fungicidal (bactericidal) activity in vitro, PDA colony diameter; type: cell-based; details: Botrytis cinerea, 96 h; 50 mg/kg
Phytophthora capsici = test: as above; type: cell-based; details: Phytophthora capsici, 96 h; 50 mg/kg
Rhizoctonia cereali = test: as above; type: cell-based; details: Rhizoctonia, 96 h; 50 mg/kg
Sclerotinia scleotiorum = test: as above; type: cell-based; details: Sclerotinia, 96 h; 50 mg/kg
cotton bollworms = test: whole plant or invertebrate; details: Helicoverpa armigera, in Gossypium hirsutum, read-out: Cotton bollworm Mortality (%)
Protocol: Experimental method of cotton bollworms: feed and drug mixing method: measure 3 mL of prepared solution and add it to about 27 g of newly prepared feed, thereby obtaining needed concentration through dilution by 10 times.

[3] = tested on: Colletotrichum orbiculare; test: Fungicidal (bactericidal) activity in vitro, PDA colony diameter; type: cell-based; details: Colletotrichum orbiculare, 96 h; 50 mg/kg
potato late blight = test: microbe, parasite or virus in culture; type: cell-based; details: Phytophthora infestans, 96 h, read-out: Bactericidal activity (%) potato late blight
mosquito larvae = test: whole plant or invertebrate; details: for mortality at 5 mg/kg / mortality at 10 mg/kg: Culex pipiens, 24 h, read-out: Mosquito larvae Mortality (%)
Method in brief: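 Compound dissolved in acetone (or other solvent) to a 1000 ppm stock and diluted in water to 5 ppm. Ten Culex pipiens pallens larvae at the start of the fourth instar, laboratory-reared, added per beaker; solvent-only aqueous control.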

[4] = tested on: tobacco mosaic virus (TMV); test: Anti-TMV in vivo therapeutic effect; set-up: species or system tobacco mosaic virus (host Nicotiana tabacum L.cv.Xanthi NN); details: Tobacco mosaic virus, read-out: Relative inhibition rate (%) In vivo therapy
Rhizoctonia solani = test: Fungicidal (bactericidal) activity in vitro, PDA colony diameter; type: cell-based; details: Rhizoctonia solani, 96 h; 50 mg/kg
armyworms = type: in vivo; details: concentration 600 mg/kg
corn borers = test: whole plant or invertebrate; details: read-out: Corn borer Mortality (%)
Bipolaria maydis = test: organism not typed; type: cell-based; details: read-out: Bactericidal activity (%) Bipolaria maydis
[5] = tested on: tobacco mosaic virus (TMV); test: Anti-TMV in vivo protective effect; set-up: species or system tobacco mosaic virus (host Nicotiana tabacum L.cv.Xanthi NN); details: Tobacco mosaic virus, read-out: Relative inhibition rate (%) In vivo protection
Fusarium fujikuroi = test: Fungicidal (bactericidal) activity in vitro, PDA colony diameter; type: cell-based; details: Fusarium fujikuroi, 96 h; 50 mg/kg

SMILES | inhibition of growth at 50 mg/kg (Alternaria solani) | inhibition at 50 mg/kg (Macrophoma kawatsukai) | inhibition of growth at 50 mg/kg (cucumber fusarium wilt) | inhibition of growth at 50 mg/kg (Cercospora arachidicola) | inhibition of growth at 50 mg/kg (Fusarium graminearumt) | inhibition of growth at 50 mg/kg (Botrytis cinerea) | inhibition of growth at 50 mg/kg (Phytophthora capsici) | inhibition of growth at 50 mg/kg (Rhizoctonia cereali) | inhibition of growth at 50 mg/kg (Sclerotinia scleotiorum) | mortality at 600 mg/kg (cotton bollworms) | inhibition of growth at 50 mg/kg [3] | inhibition of growth at 50 mg/kg (potato late blight) | mortality at 10 mg/kg (mosquito larvae) | inhibition of growth at 50 mg/kg (Rhizoctonia solani) | Armyworm Mortality (%) (armyworms) | mortality at 600 mg/kg (corn borers) | inhibition at 50 mg/kg (Bipolaria maydis) | inhibition of growth at 50 mg/kg (Fusarium fujikuroi) | inhibition at 100 µg/mL ([1]; treatment dose 100 μg/mL) | inhibition at 500 µg/mL ([1]; treatment dose 500 μg/mL) | also measured
Cc1nccc2c1[nH]c1cc(O)ccc12 [Harmol] | 26.3% | 23.8% | 26.9% | 46.2% | 23.8% | 9.1% | 25% | 42.1% | 5.9% | 20% | 46.4% | 22.7% | 100% | 50% | 50% | 45% | 31.8% | 28.6% | – | – | inhibition at 100 µg/mL [1]: 0%; inhibition at 500 µg/mL [1]: 35.1%; inhibition at 100 µg/mL [2]: 0%; inhibition at 500 µg/mL [2]: 32.6%; mortality at 5 mg/kg (mosquito larvae): 30%; inhibition at 100 µg/mL [4]: 0%; inhibition at 500 µg/mL [4]: 30%; inhibition at 100 µg/mL [5]: 9.5%; inhibition at 500 µg/mL [5]: 36.7%
Cc1nccc2c1[nH]c1ccc([N+](=O)[O-])cc12 [Ia-3] | 33.3% | 35.3% | 23.8% | 7.1% | 50% | 54.6% | 36.4% | 59.4% | 56% | 35% | 23.8% | 25% | 100% | 10.7% | 50% | 50% | 31.6% | 42.9% | 0% | 21.5% | inhibition at 100 µg/mL ([2]; treatment dose 100 μg/mL): 0%; inhibition at 500 µg/mL ([2]; treatment dose 500 μg/mL): 15.7%; mortality at 5 mg/kg (mosquito larvae): 60%; activity against culex pipiens larvae (in words) (mosquito larvae; at 5 mg/kg): still show high activity; inhibition at 100 µg/mL ([4]; treatment dose 100 μg/mL): 0%; inhibition at 500 µg/mL ([4]; treatment dose 500 μg/mL): 18.5%; inhibition at 100 µg/mL ([5]; treatment dose 100 μg/mL): 0%; inhibition at 500 µg/mL ([5]; treatment dose 500 μg/mL): 26.1%
Cc1nccc2c1[nH]c1c([N+](=O)[O-])cccc12 [Ia-4] | 15.8% | 35.7% | 38.5% | 53.9% | 42.9% | 18.2% | 9.4% | 50% | 29.4% | 10% | 42.9% | 27.3% | 30% | 42.1% | 10% | 5% | 36.4% | 21.4% | 10.5% | 36.4% | inhibition at 100 µg/mL ([2]; treatment dose 100 μg/mL): 0%; inhibition at 500 µg/mL ([2]; treatment dose 500 μg/mL): 30%; inhibition at 100 µg/mL ([4]; treatment dose 100 μg/mL): 0%; inhibition at 500 µg/mL ([4]; treatment dose 500 μg/mL): 33.3%; inhibition at 100 µg/mL ([5]; treatment dose 100 μg/mL): 5.8%; inhibition at 500 µg/mL ([5]; treatment dose 500 μg/mL): 30.1%
Cc1nccc2c1[nH]c1cc(OC(=O)NC(C)C)ccc12 [Ia-5, isopropylamino formate (1-methylpyridino [3,4-b]indol-7)-ester] | 21.1% | 2.4% | 34.6% | 53.9% | 23.8% | 0% | 25% | 36.8% | 9.8% | 15% | 39.3% | 18.2% | 30% | 6.6% | 10% | 10% | 22.7% | 14.3% | 0% | 29.5% | inhibition at 100 µg/mL ([2]; treatment dose 100 μg/mL): 0%; inhibition at 500 µg/mL ([2]; treatment dose 500 μg/mL): 31.3%; inhibition at 100 µg/mL ([4]; treatment dose 100 μg/mL): 0%; inhibition at 500 µg/mL ([4]; treatment dose 500 μg/mL): 32.7%; inhibition at 100 µg/mL ([5]; treatment dose 100 μg/mL): 5.8%; inhibition at 500 µg/mL ([5]; treatment dose 500 μg/mL): 40.3%
Cc1nccc2c1[nH]c1cc(OC(=O)[C@@H](NC(=O)OCc3ccccc3)C(C)C)ccc12 [Ia-9] | 36.8% | 78.6% | 38.5% | 61.5% | 35.7% | 51.5% | 50% | 84.2% | 13.7% | 20% | 50% | 45.5% | 25% | 52.6% | 5% | 5% | 36.4% | 21.4% | 0% | 13.6% | inhibition at 100 µg/mL ([2]; treatment dose 100 μg/mL): 0%; inhibition at 500 µg/mL ([2]; treatment dose 500 μg/mL): 20.7%; inhibition at 100 µg/mL ([4]; treatment dose 100 μg/mL): 0%; inhibition at 500 µg/mL ([4]; treatment dose 500 μg/mL): 12.5%; inhibition at 100 µg/mL ([5]; treatment dose 100 μg/mL): 0%; inhibition at 500 µg/mL ([5]; treatment dose 500 μg/mL): 19.6%
